Legend:
[1] = target: bovine serum albumin (BSA) (Bos taurus, UniProt P02769)
Source text: (§1) Maps were generated by mapping the signal difference (pre minus post infusion) between the partial spectra (−1.0 to −2.0 ppm). Field correction for static field (B0) inhomogeneities was done by creating field maps from the low power Z-spectra acquired in our study and shifting the Z-spectra voxel wise according to the WASSR method^27.

[2] = tested on: mouse brain; experiment: In vivo IMMOBILISE MRI in mice after caffeine infusion
Experimental: All experiments were performed in accordance with Institutional Animal Care and Use Committee guidelines and approved by the Johns Hopkins University Animal Care and Use Committee. Eight 6-8 week old female BALB/c mice, were anesthetized by isoflurane and kept warm with a heating pad and kept in place with a stereotactic holder. […] A home-built catheter was connected to a syringe infusion through PE-50 tubing.
MRI experiments were acquired on a 11.7 T Bruker Biospec preclinical scanner (Bruker, Ettlingen, Germany) equipped with a 72 mm quadrature volume resonator for RF transmission and a 2×2 mouse phased array coil for RF reception. The saturation preparation consisted of a 3 s, 0.5 μT CW saturation pulse followed by a two-shot FSE readout. The FSE readout parameters were TR/TE=6000/4 ms, a 64×64 acquisition matrix across a field of view of 17×17 mm and slice thickness of 1 mm. […] Acquisition of each partial Z-spectra took 105 s and was continued for 1-hour post bolus and then a complete Z-spectrum was again acquired.
as §1

Sequence of bovine serum albumin (BSA) (P02769 25-607): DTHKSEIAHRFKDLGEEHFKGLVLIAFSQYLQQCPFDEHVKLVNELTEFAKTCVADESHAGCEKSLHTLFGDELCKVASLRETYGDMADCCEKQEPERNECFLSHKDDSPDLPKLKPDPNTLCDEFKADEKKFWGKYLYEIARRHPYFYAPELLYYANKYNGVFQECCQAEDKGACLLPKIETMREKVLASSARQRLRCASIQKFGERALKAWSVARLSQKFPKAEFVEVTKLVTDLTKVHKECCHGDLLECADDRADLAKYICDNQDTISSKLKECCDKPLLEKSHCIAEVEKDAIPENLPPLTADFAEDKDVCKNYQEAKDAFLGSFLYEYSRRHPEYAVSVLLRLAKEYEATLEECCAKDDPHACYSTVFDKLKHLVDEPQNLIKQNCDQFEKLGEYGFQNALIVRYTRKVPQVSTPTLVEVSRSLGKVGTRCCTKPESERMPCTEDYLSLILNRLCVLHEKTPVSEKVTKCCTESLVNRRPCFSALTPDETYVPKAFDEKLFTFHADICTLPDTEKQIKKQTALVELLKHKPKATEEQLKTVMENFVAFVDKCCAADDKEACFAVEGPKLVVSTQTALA

Cn1c(=O)c2c(ncn2C)n(C)c1=O [caffeine]
factor in sensitivity enhancement [1]: ~1000
concentration of caffeine in mouse blood (estimate) ([2]; 2 mL blood, 50 μL of 100 mM caffeine infused): about 2.5 mM
change in water signal (detection sensitivity) ([2]; mice, after caffeine infusion, about 2.5 mM in blood): 1-3%
factor of enhancement ([2]; mice, in vivo): 30-100
